Where “and” joins values, the source holds several entries; their conditions need not be identical. Equal values may be shown once. Marks after values point to notes of the source that are not given here.
How the values were obtained:
[1] = Serum and brain levels of tadalafil after oral administration (HPLC-MS); assay type: in vivo, Mouse; details: for logBB (brain): average of logBB data from Ctx, Str and Hip, n=6, spread = Standard Deviation
Protocol: BB is the ratio of brain versus serum concentration. […] In addition, considering values in the three brain regions, the compound distribution looks quite uniform. Table 2. Blood-brain barrier permeability, as logBB, for Tadalafil
For analysis samples were prepared as follows: • 100 µl of serum were treated with 300 µl of 1% formic acid in acetonitrile. Mixture was vortexed for 5 minutes. The supernatant after centrifugation was filtered using a HybridSPE™ (Supelco, Bellefonte, USA) cartridge and the eluate was dried under an air stream. The powder was reconstituted in 100 µl of 50:50 (v/v) ammonium formate (pH=3):acetonitrile. After centrifugation the supernatant was used for analysis. • 100 mg of brain sample were treated with 600 µl of 1% formic acid in acetonitrile. The mixture was sonicated for 10 seconds and centrifuged for 5 minutes. The supernatant after centrifugation was filtered using a HybridSPE™ (Supelco, Bellefonte, USA) cartridge and the eluate was dried under an air stream. The powder was reconstituted in 100 µl of 50:50 (v/v) ammonium formate (pH=3):acetonitrile. After centrifugation the supernatant was used for analysis.

[2] = tested on: maternal-separated rat pups; details: Baek et al. (2011); cited from earlier work
gerbils = details: Ko et al. (2009); cited from earlier work
[3] = tested on: rat model of embolic stroke; details: Zhang et al. (2006); cited from earlier work
[4] = quoted from WO2010/074783, page 109; cited from earlier work
[5] = tested on: central nervous system (CNS) function; details: doses ≤100 mg/kg orally; EMEA assessment report for Adcirca (WC500069602); cited from earlier work
[6] = EMEA scientific discussion for Cialis (WC500026314); cited from earlier work
[7] = BB = ratio of brain versus serum concentration, n=6 treated mice, (Standard Deviation)
[8] = concentration of tadalafil 90 minutes after oral administration of Cialis (15 mg/Kg), individual mice

Structure (SMILES): CN1CC(=O)N2[C@H](c3ccc4c(c3)OCO4)c3[nH]c4ccccc4c3C[C@@H]2C1=O [tadalafil, (6R-trans)-6-(1,3-benzodioxol-5-yl)-2,3,6,7,12,12a-hexahydro-2-methyl-pyrazino [1',2':1,6] pyrido [3,4-b]indole-1,4-dione]
- logBB (Ctx) [1, 7]: -0.89 (0.16)^b
- logBB (Hip) [1, 7]: -0.81 (0.17)^b
- logBB (Str) [1, 7]: -0.98 (0.13)^b
- Hip ([1]; Hippocampus, 90 minutes after oral administration of Cialis (15 mg/Kg), individual mice): 0.45 µM and 0.91 µM and 1.54 µM and 2.19 µM and 1.48 µM and 1.35 µM
- Ctx ([1]; Prefrontal Cortex, 90 minutes after oral administration of Cialis (15 mg/Kg), individual mice): 0.61 µM and 1.25 µM and 1.22 µM and 1.35 µM and 0.73 µM and 0.91 µM
- Str ([1]; Striatum, 90 minutes after oral administration of Cialis (15 mg/Kg), individual mice): 0.39 µM and 0.82 µM and 1.09 µM (2×) and 0.72 µM and 0.93 µM
- logBB (brain) [1]: -0.89+/-0.09
- logBB (brain) ([1]; listed as Tadalafil): -0.89 (0.09)^b
- Serum (µM) [1, 8]: 4,95 µM
- concentration at 90 min [1, 8]: 9.65 µM and 7.27 µM and 10.23 µM and 8.10 µM
- Kp at 90 min ([1]; mouse, oral, 15 mg/Kg, from logBB of the three brain areas): ~0.12
- concentration at 90 min ([1]; mouse, serum, oral, 15 mg/Kg, concentration of tadalafil 90 minutes after oral administration of Cialis (15 mg/Kg), individual mice): 6.53 µM
- depressive symptoms, memory impairment, apoptosis and cell proliferation in the hippocampus [2]: improves depressive symptoms, ameliorates memory impairment, as well as suppresses apoptosis and enhances cell proliferation
- short-term memory (gerbils): improves short-term memory
- neurological functional recovery [3]: improves neurological functional recovery
- ability to cross the BBB [4]: unable to cross the BBB
- effects on central nervous system (CNS) function [5]: no effects
- observed in the central nervous system [6]: not observed
